Source: PubChem BioAssay AID248 (DTP/NCI, 2004)
Where “and” joins values, the source holds several entries; their conditions need not be identical. Equal values may be shown once. Toxic doses and inconclusive results are not listed. Cut-off read from the data, not from the text of the source: active = T/C of 150% or more; inactive = T/C below 125%.

System: L1210 leukemia ip in BDF1 mice, survival T/C
Test: NCI In Vivo Anticancer Drug Screen. Data for tumor model L1210 Leukemia (intraperitoneal) in B6D2F1 (BDF1) mice
Conditions: endpoint: mean survival time, higher = longer survival
Procedure, shortened: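 Transplantable tumor model; survival measured in treated vs vehicle control mice. Value = treated/control.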

[1] = dose: 100.0 mg/kg/injection, schedule: Q01DX009 (ip), vehicle: saline sonified
[2] = dose: 100.0 mg/kg/injection, schedule: Q04DX003 (ip), vehicle: saline sonified
[3] = dose: 200.0 mg/kg/injection, schedule: Q01DX009 (ip), vehicle: saline sonified
[4] = dose: 200.0 mg/kg/injection, schedule: Q04DX003 (ip), vehicle: saline sonified
[5] = dose: 400.0 mg/kg/injection, schedule: Q04DX003 (ip), vehicle: saline sonified
[6] = dose: 100.0 mg/kg/injection, schedule: Q01DX009 (ip), vehicle: saline with Tween-80
[7] = dose: 200.0 mg/kg/injection, schedule: Q01DX009 (ip), vehicle: saline with Tween-80
[8] = dose: 400.0 mg/kg/injection, schedule: Q01DX009 (ip), vehicle: saline with Tween-80
[9] = dose: 100.0 mg/kg/injection, schedule: Q04DX003 (ip), vehicle: Klucel (hydroxypropylcellulose) (HPC)
[10] = dose: 200.0 mg/kg/injection, schedule: Q04DX003 (ip), vehicle: Klucel (hydroxypropylcellulose) (HPC)
[11] = dose: 100.0 mg/kg/injection, schedule: Q01DX001 (ip), vehicle: saline
[12] = dose: 200.0 mg/kg/injection, schedule: Q01DX001 (ip), vehicle: saline
[13] = dose: 400.0 mg/kg/injection, schedule: Q01DX001 (ip), vehicle: saline
[14] = dose: 75.0 mg/kg/injection, schedule: Q01DX001 (ip), vehicle: saline

Measured: T/C

N#Cc1cnn2c(=O)[nH]cnc12
inactive: [1] 95 % of control | [2] 93 % of control | [3] 91 % of control | [4] 101 % of control | [5] 95 % of control

CCCCCCCCN(C)N=Nc1ccc(C(=O)O)cc1
inactive: dose: 25.0 mg/kg/injection, schedule: Q04DX003 (ip), vehicle: other 93 % of control | dose: 50.0 mg/kg/injection, schedule: Q04DX003 (ip), vehicle: other 90 % of control | dose: 100.0 mg/kg/injection, schedule: Q01DX009 (ip), vehicle: Klucel (hydroxypropylcellulose) (HPC) 102 % of control | dose: 100.0 mg/kg/injection, schedule: Q04DX003 (ip), vehicle: other 92 % of control | dose: 200.0 mg/kg/injection, schedule: Q01DX009 (ip), vehicle: Klucel (hydroxypropylcellulose) (HPC) 102 % of control | dose: 200.0 mg/kg/injection, schedule: Q04DX003 (ip), vehicle: other 90 % of control | dose: 300.0 mg/kg/injection, schedule: Q01DX009 (ip), vehicle: Klucel (hydroxypropylcellulose) (HPC) 98 % of control | dose: 400.0 mg/kg/injection, schedule: Q01DX009 (ip), vehicle: Klucel (hydroxypropylcellulose) (HPC) 122 % of control and 90 % of control | dose: 400.0 mg/kg/injection, schedule: Q04DX003 (ip), vehicle: other 95 % of control | dose: 600.0 mg/kg/injection, schedule: Q01DX009 (ip), vehicle: Klucel (hydroxypropylcellulose) (HPC) 98 % of control

O=C(CNC(=O)c1ccccc1)N/N=C/c1cccc2ccccc12
inactive: [6] 89 % of control | [7] 94 % of control | [8] 94 % of control

CN(C1=NS(=O)(=O)N=C(N(C)c2ccccc2)O1)c1ccccc1
inactive: [9] 102 % of control | [10] 102 % of control | dose: 400.0 mg/kg/injection, schedule: Q04DX003 (ip), vehicle: Klucel (hydroxypropylcellulose) (HPC) 98 % of control

Cc1ccc(CNC(=O)Nc2cccc(Cl)c2)cc1
inactive: dose: 100.0 mg/kg/injection, schedule: Q04DX002 (ip), vehicle: Klucel (hydroxypropylcellulose) (HPC) 115 % of control | dose: 200.0 mg/kg/injection, schedule: Q04DX002 (ip), vehicle: Klucel (hydroxypropylcellulose) (HPC) 102 % of control | dose: 400.0 mg/kg/injection, schedule: Q04DX002 (ip), vehicle: Klucel (hydroxypropylcellulose) (HPC) 108 % of control

O=C(CCc1ccccc1)Nc1ccc(F)cc1
inactive: dose: 100.0 mg/kg/injection, schedule: Q01DX001 (ip), vehicle: saline with Tween-80 95 % of control | [6] 97 % of control and 106 % of control | dose: 100.0 mg/kg/injection, schedule: Q04DX002 (ip), vehicle: saline with Tween-80 94 % of control and 98 % of control | dose: 200.0 mg/kg/injection, schedule: Q01DX001 (ip), vehicle: saline with Tween-80 95 % of control | [7] 93 % of control and 95 % of control | dose: 200.0 mg/kg/injection, schedule: Q04DX002 (ip), vehicle: saline with Tween-80 94 % of control and 102 % of control | dose: 400.0 mg/kg/injection, schedule: Q01DX001 (ip), vehicle: saline with Tween-80 94 % of control | [8] 98 % of control and 101 % of control | dose: 400.0 mg/kg/injection, schedule: Q04DX002 (ip), vehicle: saline with Tween-80 94 % of control and 97 % of control

COc1cc2c(cc1[N+](=O)[O-])C(=O)CCCC2
inactive: dose: 50.0 mg/kg/injection, schedule: Q01DX009 (ip), vehicle: saline with Tween-80 88 % of control | [6] 92 % of control

CN(C)CCN(C)Cc1cc(=O)[nH]c(=O)[nH]1
inactive: dose: 100.0 mg/kg/injection, schedule: Q04DX003 (ip), vehicle: saline 96 % of control | dose: 200.0 mg/kg/injection, schedule: Q04DX003 (ip), vehicle: saline 100 % of control | dose: 400.0 mg/kg/injection, schedule: Q04DX003 (ip), vehicle: saline 100 % of control

CC12OC1(C)C1(CO1)C1(C)OC1(C)C2=O (stereo not given)
inactive: dose: 100.0 mg/kg/injection, schedule: Q01DX001 (ip), vehicle: Klucel (hydroxypropylcellulose) (HPC) 94 % of control | dose: 200.0 mg/kg/injection, schedule: Q01DX001 (ip), vehicle: Klucel (hydroxypropylcellulose) (HPC) 97 % of control | dose: 400.0 mg/kg/injection, schedule: Q01DX001 (ip), vehicle: Klucel (hydroxypropylcellulose) (HPC) 87 % of control

COC1OCC(NC(=O)C(F)(F)F)C(OC(C)=O)C1OC(C)=O (stereo not given)
inactive: dose: 50.0 mg/kg/injection, schedule: Q01DX001 (ip), vehicle: carboxymethylcellulose (CMC) 94 % of control | dose: 100.0 mg/kg/injection, schedule: Q01DX001 (ip), vehicle: carboxymethylcellulose (CMC) 100 % of control | dose: 200.0 mg/kg/injection, schedule: Q01DX001 (ip), vehicle: carboxymethylcellulose (CMC) 105 % of control | dose: 400.0 mg/kg/injection, schedule: Q01DX001 (ip), vehicle: carboxymethylcellulose (CMC) 100 % of control

O=C(NCCCl)Nc1ccc2c3c1CCCC3CC2 (stereo not given)
inactive: dose: 50.0 mg/kg/injection, schedule: Q04DX003 (ip), vehicle: Klucel (hydroxypropylcellulose) (HPC) 106 % of control | [9] 107 % of control | [10] 102 % of control

NC1CCSCC1
inactive: [11] 104 % of control | [12] 96 % of control | [13] 96 % of control

O=C1C=C(N2CCCC2)CCC1
inactive: [14] 107 % of control | dose: 150.0 mg/kg/injection, schedule: Q01DX001 (ip), vehicle: saline 109 % of control

CC(C1SCCCS1)C1SCCCS1
inactive: dose: 37.5 mg/kg/injection, schedule: Q04DX002 (ip), vehicle: saline with Tween-80 92 % of control | dose: 75.0 mg/kg/injection, schedule: Q04DX002 (ip), vehicle: saline with Tween-80 92 % of control | dose: 150.0 mg/kg/injection, schedule: Q04DX002 (ip), vehicle: saline with Tween-80 98 % of control | dose: 300.0 mg/kg/injection, schedule: Q04DX002 (ip), vehicle: saline with Tween-80 95 % of control

O=C(O)C(Cl)C(=O)O
inactive: dose: 4.68 mg/kg/injection, schedule: Q01DX009 (ip), vehicle: saline 102 % of control | dose: 9.37 mg/kg/injection, schedule: Q01DX009 (ip), vehicle: saline 102 % of control | dose: 18.75 mg/kg/injection, schedule: Q01DX009 (ip), vehicle: saline 94 % of control | dose: 18.75 mg/kg/injection, schedule: Q04DX003 (ip), vehicle: saline 105 % of control | dose: 37.5 mg/kg/injection, schedule: Q04DX003 (ip), vehicle: saline 97 % of control | [14] 107 % of control

C=COC(=O)CCCCCCC (tested in a mixture with another compound)
inactive: dose: 4.0 mg/kg/injection, schedule: Q01DX001 (ip), vehicle: acetone 89 % of control | dose: 5.0 mg/kg/injection, schedule: Q01DX001 (ip), vehicle: acetone 94 % of control | dose: 5.0 mg/kg/injection, schedule: Q01DX001 (ip), vehicle: saline 97 % of control | dose: 6.0 mg/kg/injection, schedule: Q01DX001 (ip), vehicle: acetone 106 % of control | dose: 10.0 mg/kg/injection, schedule: Q01DX001 (ip), vehicle: acetone 93 % of control | dose: 10.0 mg/kg/injection, schedule: Q01DX001 (ip), vehicle: saline 87 % of control | dose: 20.0 mg/kg/injection, schedule: Q01DX001 (ip), vehicle: acetone 92 % of control | dose: 20.0 mg/kg/injection, schedule: Q01DX001 (ip), vehicle: saline 101 % of control | dose: 40.0 mg/kg/injection, schedule: Q01DX001 (ip), vehicle: acetone 95 % of control | dose: 40.0 mg/kg/injection, schedule: Q01DX001 (ip), vehicle: saline 97 % of control | dose: 80.0 mg/kg/injection, schedule: Q01DX001 (ip), vehicle: acetone 90 % of control | dose: 80.0 mg/kg/injection, schedule: Q01DX001 (ip), vehicle: saline 102 % of control | [11] 110 % of control and 104 % of control and 105 % of control | [12] 94 % of control | [13] 100 % of control and 101 % of control

CCN(CC)C(=S)[S][Sb]([c]1ccccc1)[c]1ccccc1
inactive: dose: 100.0 mg/kg/injection, schedule: Q01DX001 (ip), vehicle: steriod suspending solution 110 % of control

CC(=O)Nc1cccc(Cl)c1C
inactive: [1] 97 % of control | [2] 95 % of control | [3] 91 % of control | [4] 95 % of control | dose: 400.0 mg/kg/injection, schedule: Q01DX009 (ip), vehicle: saline sonified 91 % of control | [5] 97 % of control
